Assay results from the supplement of paper PMC10307832.

Legend:
Assay in all cases: relative viability (nuclei count vs DMSO), 5 days (fraction); higher = more cells survive
Carfilzomib + Dasatinib = compound: CC(C)C[C@H](NC(=O)[C@H](CCc1ccccc1)NC(=O)CN1CCOCC1)C(=O)N[C@@H](Cc1ccccc1)C(=O)N[C@@H](CC(C)C)C(=O)[C@@]1(C)CO1 [Carfilzomib] + Cc1nc(Nc2ncc(C(=O)Nc3c(C)cccc3Cl)s2)cc(N2CCN(CCO)CC2)n1 [Dasatinib] (partner 0.075 µM)
Procedure, shortened: (§1)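 After 5 days of treatment, lung cancer cells in 1536-well plates were fixed and stained in a single step (final 0.05% Triton X-100, 1% formaldehyde, 1 ug/ml Hoechst) and their nuclei counted on 4× images. Treatment had been applied by pin tool the day after seeding as one drug alone or as a fixed anchor-drug dose with five library-drug doses (not always all listed) in √10 steps. Relative viability is the nuclei count of treated wells divided by that of vehicle wells, and values are medians of duplicate plates.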

Crizotinib + OSI-027 = compound: C[C@@H](Oc1cc(-c2cnn(C3CCNCC3)c2)cnc1N)c1c(Cl)ccc(F)c1Cl [Crizotinib] + COc1cccc2cc(-c3nc([C@H]4CC[C@H](C(=O)O)CC4)n4ncnc(N)c34)[nH]c12 [OSI-027] (partner 0.5 µM)
Procedure, shortened: as §1

Crizotinib + Pictilisib = compound: C[C@@H](Oc1cc(-c2cnn(C3CCNCC3)c2)cnc1N)c1c(Cl)ccc(F)c1Cl [Crizotinib] + CS(=O)(=O)N1CCN(Cc2cc3nc(-c4cccc5[nH]ncc45)nc(N4CCOCC4)c3s2)CC1 [Pictilisib] (partner 1 µM)
Procedure, shortened: as §1

Crizotinib + Vorinostat = compound: C[C@@H](Oc1cc(-c2cnn(C3CCNCC3)c2)cnc1N)c1c(Cl)ccc(F)c1Cl [Crizotinib] + O=C(CCCCCCC(=O)Nc1ccccc1)NO [Vorinostat] (partner 1 µM)
Procedure, shortened: as §1

NCI-H322M
relative viability (Carfilzomib + Dasatinib; first compound 0.001 µM): 0.272 | relative viability (Carfilzomib + Dasatinib; first compound 0.003162 µM): 0.264 | relative viability (Carfilzomib + Dasatinib; first compound 0.01 µM): 0.255 | relative viability (Carfilzomib + Dasatinib; first compound 0.03162 µM): 0.271 | relative viability (Carfilzomib + Dasatinib; first compound 0.1 µM): 0.232 | relative viability (Crizotinib + OSI-027; first compound 0.01 µM): 0.519 | relative viability (Crizotinib + OSI-027; first compound 0.03162 µM): 0.521 | relative viability (Crizotinib + OSI-027; first compound 0.1 µM): 0.478 | relative viability (Crizotinib + OSI-027; first compound 0.3162 µM): 0.535 | relative viability (Crizotinib + OSI-027; first compound 1 µM): 0.502 | relative viability (Crizotinib + Pictilisib; first compound 0.01 µM): 0.432 | relative viability (Crizotinib + Pictilisib; first compound 0.03162 µM): 0.522 | relative viability (Crizotinib + Pictilisib; first compound 0.1 µM): 0.493 | relative viability (Crizotinib + Pictilisib; first compound 0.3162 µM): 0.585 | relative viability (Crizotinib + Pictilisib; first compound 1 µM): 0.52 | relative viability (Crizotinib + Vorinostat; first compound 0.03162 µM): 0.884 | relative viability (Crizotinib + Vorinostat; first compound 0.1 µM): 1 | relative viability (Crizotinib + Vorinostat; first compound 0.3162 µM): 0.823 | relative viability (Crizotinib + Vorinostat; first compound 1 µM): 0.972

NCI-H358
relative viability (Carfilzomib + Dasatinib; first compound 0.001 µM): 0.171 | relative viability (Carfilzomib + Dasatinib; first compound 0.003162 µM): 0.152 | relative viability (Carfilzomib + Dasatinib; first compound 0.01 µM): 0.2 | relative viability (Carfilzomib + Dasatinib; first compound 0.03162 µM): 0.0675 | relative viability (Carfilzomib + Dasatinib; first compound 0.1 µM): 0.0836 | relative viability (Crizotinib + OSI-027; first compound 0.01 µM): 0.628 | relative viability (Crizotinib + OSI-027; first compound 0.03162 µM): 0.897 | relative viability (Crizotinib + OSI-027; first compound 0.1 µM): 0.673 | relative viability (Crizotinib + OSI-027; first compound 0.3162 µM): 0.664 | relative viability (Crizotinib + OSI-027; first compound 1 µM): 0.772 | relative viability (Crizotinib + Pictilisib; first compound 0.01 µM): 0.338 | relative viability (Crizotinib + Pictilisib; first compound 0.03162 µM): 0.354 | relative viability (Crizotinib + Pictilisib; first compound 0.1 µM): 0.35 | relative viability (Crizotinib + Pictilisib; first compound 0.3162 µM): 0.27 | relative viability (Crizotinib + Pictilisib; first compound 1 µM): 0.325 | relative viability (Crizotinib + Vorinostat; first compound 0.01 µM): 0.793 | relative viability (Crizotinib + Vorinostat; first compound 0.03162 µM): 0.658 | relative viability (Crizotinib + Vorinostat; first compound 0.1 µM): 0.718 | relative viability (Crizotinib + Vorinostat; first compound 0.3162 µM): 0.725 | relative viability (Crizotinib + Vorinostat; first compound 1 µM): 0.697

NCI-H441
relative viability (Carfilzomib + Dasatinib; first compound 0.001 µM): 0.66 | relative viability (Carfilzomib + Dasatinib; first compound 0.003162 µM): 0.629 | relative viability (Carfilzomib + Dasatinib; first compound 0.01 µM): 0.376 | relative viability (Carfilzomib + Dasatinib; first compound 0.03162 µM): 0.156 | relative viability (Carfilzomib + Dasatinib; first compound 0.1 µM): 0.176 | relative viability (Crizotinib + OSI-027; first compound 0.01 µM): 0.569 | relative viability (Crizotinib + OSI-027; first compound 0.03162 µM): 0.553 | relative viability (Crizotinib + OSI-027; first compound 0.1 µM): 0.601 | relative viability (Crizotinib + OSI-027; first compound 1 µM): 0.603 | relative viability (Crizotinib + Pictilisib; first compound 0.01 µM): 0.436 | relative viability (Crizotinib + Pictilisib; first compound 0.03162 µM): 0.395 | relative viability (Crizotinib + Pictilisib; first compound 0.1 µM): 0.432 | relative viability (Crizotinib + Pictilisib; first compound 0.3162 µM): 0.34 | relative viability (Crizotinib + Pictilisib; first compound 1 µM): 0.443 | relative viability (Crizotinib + Vorinostat; first compound 0.01 µM): 0.799 | relative viability (Crizotinib + Vorinostat; first compound 0.03162 µM): 0.774 | relative viability (Crizotinib + Vorinostat; first compound 0.1 µM): 0.63 | relative viability (Crizotinib + Vorinostat; first compound 0.3162 µM): 0.768 | relative viability (Crizotinib + Vorinostat; first compound 1 µM): 0.965

NCI-H460
relative viability (Carfilzomib + Dasatinib; first compound 0.001 µM): 0.539 | relative viability (Carfilzomib + Dasatinib; first compound 0.003162 µM): 0.529 | relative viability (Carfilzomib + Dasatinib; first compound 0.01 µM): 0.568 | relative viability (Carfilzomib + Dasatinib; first compound 0.03162 µM): 0.538 | relative viability (Carfilzomib + Dasatinib; first compound 0.1 µM): 0.0417 | relative viability (Crizotinib + OSI-027; first compound 0.01 µM): 0.536 | relative viability (Crizotinib + OSI-027; first compound 0.03162 µM): 0.931 | relative viability (Crizotinib + OSI-027; first compound 0.1 µM): 0.479 | relative viability (Crizotinib + OSI-027; first compound 0.3162 µM): 0.6 | relative viability (Crizotinib + OSI-027; first compound 1 µM): 0.708 | relative viability (Crizotinib + Pictilisib; first compound 0.01 µM): 0.4 | relative viability (Crizotinib + Pictilisib; first compound 0.03162 µM): 0.349 | relative viability (Crizotinib + Pictilisib; first compound 0.1 µM): 0.302 | relative viability (Crizotinib + Pictilisib; first compound 0.3162 µM): 0.309 | relative viability (Crizotinib + Pictilisib; first compound 1 µM): 0.314 | relative viability (Crizotinib + Vorinostat; first compound 0.01 µM): 0.709 | relative viability (Crizotinib + Vorinostat; first compound 0.03162 µM): 0.69 | relative viability (Crizotinib + Vorinostat; first compound 0.1 µM): 0.688 | relative viability (Crizotinib + Vorinostat; first compound 0.3162 µM): 0.852 | relative viability (Crizotinib + Vorinostat; first compound 1 µM): 0.722

NCI-H520
relative viability (Carfilzomib + Dasatinib; first compound 0.001 µM): 0.204 | relative viability (Carfilzomib + Dasatinib; first compound 0.003162 µM): 0.17 | relative viability (Carfilzomib + Dasatinib; first compound 0.01 µM): 0.168 | relative viability (Carfilzomib + Dasatinib; first compound 0.03162 µM): 0.188 | relative viability (Carfilzomib + Dasatinib; first compound 0.1 µM): 0.213 | relative viability (Crizotinib + OSI-027; first compound 0.01 µM): 0.272 | relative viability (Crizotinib + OSI-027; first compound 0.03162 µM): 0.295 | relative viability (Crizotinib + OSI-027; first compound 0.1 µM): 0.24 | relative viability (Crizotinib + OSI-027; first compound 0.3162 µM): 0.27 | relative viability (Crizotinib + OSI-027; first compound 1 µM): 0.258 | relative viability (Crizotinib + Pictilisib; first compound 0.01 µM): 0.261 | relative viability (Crizotinib + Pictilisib; first compound 0.03162 µM): 0.333 | relative viability (Crizotinib + Pictilisib; first compound 0.1 µM): 0.303 | relative viability (Crizotinib + Pictilisib; first compound 0.3162 µM): 0.319 | relative viability (Crizotinib + Pictilisib; first compound 1 µM): 0.251 | relative viability (Crizotinib + Vorinostat; first compound 0.01 µM): 0.568 | relative viability (Crizotinib + Vorinostat; first compound 0.03162 µM): 0.68 | relative viability (Crizotinib + Vorinostat; first compound 0.1 µM): 0.732 | relative viability (Crizotinib + Vorinostat; first compound 0.3162 µM): 0.774 | relative viability (Crizotinib + Vorinostat; first compound 1 µM): 0.722

NCI-H596
relative viability (Carfilzomib + Dasatinib; first compound 0.001 µM): 0.607 | relative viability (Carfilzomib + Dasatinib; first compound 0.003162 µM): 0.583 | relative viability (Carfilzomib + Dasatinib; first compound 0.01 µM): 0.52 | relative viability (Carfilzomib + Dasatinib; first compound 0.03162 µM): 0.381 | relative viability (Carfilzomib + Dasatinib; first compound 0.1 µM): 0.174 | relative viability (Crizotinib + OSI-027; first compound 0.01 µM): 0.715 | relative viability (Crizotinib + OSI-027; first compound 0.03162 µM): 0.857 | relative viability (Crizotinib + OSI-027; first compound 0.1 µM): 0.693 | relative viability (Crizotinib + OSI-027; first compound 0.3162 µM): 0.564 | relative viability (Crizotinib + OSI-027; first compound 1 µM): 0.67 | relative viability (Crizotinib + Pictilisib; first compound 0.01 µM): 0.348 | relative viability (Crizotinib + Pictilisib; first compound 0.03162 µM): 0.378 | relative viability (Crizotinib + Pictilisib; first compound 0.1 µM): 0.354 | relative viability (Crizotinib + Pictilisib; first compound 0.3162 µM): 0.414 | relative viability (Crizotinib + Pictilisib; first compound 1 µM): 0.367 | relative viability (Crizotinib + Vorinostat; first compound 0.01 µM): 0.638 | relative viability (Crizotinib + Vorinostat; first compound 0.03162 µM): 0.681 | relative viability (Crizotinib + Vorinostat; first compound 0.1 µM): 0.742 | relative viability (Crizotinib + Vorinostat; first compound 0.3162 µM): 0.62 | relative viability (Crizotinib + Vorinostat; first compound 1 µM): 0.748

NCI-H647
relative viability (Carfilzomib + Dasatinib; first compound 0.001 µM): 0.198 | relative viability (Carfilzomib + Dasatinib; first compound 0.003162 µM): 0.21 | relative viability (Carfilzomib + Dasatinib; first compound 0.01 µM): 0.149 | relative viability (Carfilzomib + Dasatinib; first compound 0.03162 µM): 0.0266 | relative viability (Carfilzomib + Dasatinib; first compound 0.1 µM): 0.0232 | relative viability (Crizotinib + OSI-027; first compound 0.01 µM): 0.736 | relative viability (Crizotinib + OSI-027; first compound 0.03162 µM): 0.516 | relative viability (Crizotinib + OSI-027; first compound 0.1 µM): 0.641 | relative viability (Crizotinib + OSI-027; first compound 0.3162 µM): 0.531 | relative viability (Crizotinib + OSI-027; first compound 1 µM): 0.663 | relative viability (Crizotinib + Pictilisib; first compound 0.01 µM): 0.432 | relative viability (Crizotinib + Pictilisib; first compound 0.03162 µM): 0.393 | relative viability (Crizotinib + Pictilisib; first compound 0.1 µM): 0.459 | relative viability (Crizotinib + Pictilisib; first compound 1 µM): 0.269 | relative viability (Crizotinib + Vorinostat; first compound 0.03162 µM): 0.71 | relative viability (Crizotinib + Vorinostat; first compound 0.1 µM): 0.575 | relative viability (Crizotinib + Vorinostat; first compound 0.3162 µM): 0.764 | relative viability (Crizotinib + Vorinostat; first compound 1 µM): 0.643

NCI-H650
relative viability (Carfilzomib + Dasatinib; first compound 0.003162 µM): 0.515 | relative viability (Carfilzomib + Dasatinib; first compound 0.01 µM): 0.457 | relative viability (Carfilzomib + Dasatinib; first compound 0.03162 µM): 0.359 | relative viability (Carfilzomib + Dasatinib; first compound 0.1 µM): 0.164 | relative viability (Crizotinib + OSI-027; first compound 0.01 µM): 0.587 | relative viability (Crizotinib + OSI-027; first compound 0.03162 µM): 0.508 | relative viability (Crizotinib + OSI-027; first compound 0.1 µM): 0.544 | relative viability (Crizotinib + OSI-027; first compound 0.3162 µM): 0.423 | relative viability (Crizotinib + OSI-027; first compound 1 µM): 0.59 | relative viability (Crizotinib + Pictilisib; first compound 0.01 µM): 0.883 | relative viability (Crizotinib + Pictilisib; first compound 0.03162 µM): 0.893 | relative viability (Crizotinib + Pictilisib; first compound 0.1 µM): 0.865 | relative viability (Crizotinib + Pictilisib; first compound 0.3162 µM): 0.799 | relative viability (Crizotinib + Pictilisib; first compound 1 µM): 0.783 | relative viability (Crizotinib + Vorinostat; first compound 0.01 µM): 0.528 | relative viability (Crizotinib + Vorinostat; first compound 0.03162 µM): 0.414 | relative viability (Crizotinib + Vorinostat; first compound 0.1 µM): 0.396 | relative viability (Crizotinib + Vorinostat; first compound 1 µM): 0.444
